Reference: patent US12310975B2, “Modulators of BCL6 proteolysis and associated methods of use” (Arvinas Operations, Inc., priority 2019, dated 2025)
Like-named read-outs stand apart in the source and are kept apart here.

Biological target: BCL6 (Homo sapiens (Human), UniProt P41182)
Experiment: Immunofluorescence high content imaging of BCL6 degradation in T47D cells
Type: cell-based
Conditions: for DC50: class symbols A-D, read-out: EC50 (nM)*
Procedure, shortened: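 Following a 3-day incubation with serially diluted bifunctional compounds (final top 0.1 or 1 μM), T47D cells were PFA-fixed and immunostained for BCL6. Nuclear BCL6 signal was captured on a high-content imager.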

CNC(=O)COc1cc2cc(Nc3nc(N4CCC(CN5CCC6(CC5)CN(c5cccc(C(=O)NC7CCC(=O)NC7=O)c5F)C6)CC4)ncc3Cl)ccc2n(C(C)C)c1=O (centres unmarked) [compound 419, 3-[7-({1-[5-chloro-4-({3-[(methylcarbamoyl)methoxy]-2-oxo-1-(propan-2-yl)-1,2-dihydroquinolin-6-yl}amino)pyrimidin-2-yl]piperidin-4-yl}methyl)-2,7-diazaspiro[3.5]nonan-2-yl]-N-(2,6-dioxopiperidin-3-yl)-2-fluorobenzamide]
Dmax (T47D cells): ≥ 70%

CNC(=O)COc1cc2cc(Nc3nc(N4CCC(CN5CCC(c6ccc(N7CCC(=O)NC7=O)c(OC)c6)CC5)CC4)ncc3Cl)ccc2n(C(C)C)c1=O [compound 415, 2-{[6-({5-chloro-2-[4-({4-[4-(2,4-dioxo-1,3-diazinan-1-yl)-3-methoxyphenyl]piperidin-1-yl}methyl)piperidin-1-yl]pyrimidin-4-yl}amino)-2-oxo-1-(propan-2-yl)-1,2-dihydroquinolin-3-yl]oxy}-N-methylacetamide]
IC50 (T47D cells): ≥ 100 nM

CNC(=O)COc1cc2cc(Nc3nc(N4CCC(CN5CC6(C5)CN(c5ccc7c(c5)C(=O)N(C5CCC(=O)NC5=O)C7=O)C6)CC4)ncc3Cl)ccc2n(C(C)C)c1=O (centres unmarked) [compound 306, 2-{[6-({5-chloro-2-[4-({6-[2-(2,6-dioxopiperidin-3-yl)-1,3-dioxo-2,3-dihydro-1H-isoindol-5-yl]-2,6-diazaspiro[3.3]heptan-2-yl}methyl)piperidin-1-yl]pyrimidin-4-yl}amino)-2-oxo-1-(propan-2-yl)-1,2-dihydroquinolin-3-yl]oxy}-N-methylacetamide]
IC50: < 10 nM
Dmax (T47D): ≥ 70%

CNC(=O)COc1cc2cc(Nc3nc(N4CCO[C@H](COc5ccc(C(=O)NC6CCC(=O)NC6=O)nc5)C4)ncc3Cl)ccc2n(C(C)C)c1=O (stereo partly drawn) [compound 349, 5-{[(2S)-4-[5-chloro-4-({3-[(methylcarbamoyl)methoxy]-2-oxo-1-(propan-2-yl)-1,2-dihydroquinolin-6-yl}amino)pyrimidin-2-yl]morpholin-2-yl]methoxy}-N-(2,6-dioxopiperidin-3-yl)pyridine-2-carboxamide]
Dmax (T47D cells): < 50%
IC50 (T47D cells): ≥ 100 nM

CNC(=O)COc1cc2cc(Nc3nc(N4CCC(OCCOCCOCCOCCOc5cc(-c6scnc6C)ccc5CNC(=O)[C@@H]5C[C@@H](O)CN5C(=O)C(c5cc(C)no5)C(C)C)CC4)ncc3Cl)ccc2n(C)c1=O (stereo partly drawn) [compound 54, (2S,4R)-N-(2-(2-(2-(2-(2-((1-(5-chloro-4-((1-methyl-3-(2-(methylamino)-2-oxoethoxy)-2-oxo-1,2-dihydroquinolin-6-yl)amino)pyrimidin-2-yl)piperidin-4-yl)oxy)ethoxy)ethoxy)ethoxy)ethoxy)-4-(4-methylthiazol-5-yl)benzyl)-4-hydroxy-1-(3-methyl-2-(3-methylisoxazol-5-yl)butanoyl)pyrrolidine-2-carboxamide]
DC50: > 100 nM

CNC(=O)COc1cc2cc(Nc3nc(N4CCC(OCCOCCOCCOCCOc5ccc6c(c5)C(=O)N(C5CCC(=O)NC5=O)C6=O)CC4)ncc3Cl)ccc2n(C)c1=O (centres unmarked) [compound 60, 2-((6-((5-chloro-2-(4-(2-(2-(2-(2-((2-(2,6-dioxopiperidin-3-yl)-1,3-dioxoisoindolin-5-yl)oxy)ethoxy)ethoxy)ethoxy)ethoxy)piperidin-1-yl)pyrimidin-4-yl)amino)-1-methyl-2-oxo-1,2-dihydroquinolin-3-yl)oxy)-N-methylacetamide]
DC50: > 100 nM

CNC(=O)COc1cc2cc(Nc3nc(N4CCC(c5ccc(OCCCOCCCOCCOc6ccc7c(c6)CN(C6CCC(=O)NC6=O)C7=O)cc5)CC4)ncc3Cl)ccc2n(C)c1=O (centres unmarked) [compound 125, 2-((6-((5-chloro-2-(4-(4-(3-(3-(2-((2-(2,6-dioxopiperidin-3-yl)-1-oxoisoindolin-5-yl)oxy)ethoxy)propoxy)propoxy)phenyl)piperidin-1-yl)pyrimidin-4-yl)amino)-1-methyl-2-oxo-1,2-dihydroquinolin-3-yl)oxy)-N-methylacetamide]
DC50: > 100 nM

CNC(=O)COc1cc2cc(Nc3nc(N4CCC(OCCN5CCC(N6CCC(OCC#Cc7ccc8c(c7)CN(C7CCC(=O)NC7=O)C8=O)CC6)CC5)CC4)ncc3Cl)ccc2n(C)c1=O (centres unmarked) [compound 143, 2-((6-((5-chloro-2-(4-(2-(4-((3-(2-(2,6-dioxopiperidin-3-yl)-1-oxoisoindolin-5-yl)prop-2-yn-1-yl)oxy)-[1,4′-bipiperidin]-1′-yl)ethoxy)piperidin-1-yl)pyrimidin-4-yl)amino)-1-methyl-2-oxo-1,2-dihydroquinolin-3-yl)oxy)-N-methylacetamide]
DC50: 10 to 50 nM

CN1C(=O)CCc2cc(Nc3cc(OC4CCN(CCOCCOc5ccc6c(c5)C(=O)N(C5CCC(=O)NC5=O)C6=O)CC4)c([N+](=O)[O-])cc3Cl)ccc21 (centres unmarked) [compound 73, 5-(2-(2-(4-(4-chloro-5-((1-methyl-2-oxo-1,2,3,4-tetrahydroquinolin-6-yl)amino)-2-nitrophenoxy)piperidin-1-yl)ethoxy)ethoxy)-2-(2,6-dioxopiperidin-3-yl)isoindoline-1,3-dione]
DC50: > 100 nM

CNC(=O)COc1cc2cc(Nc3nc(N4CCC(CN5CCN(c6cccc7c6C(=O)N(C6CCC(=O)NC6=O)C7=O)CC5)CC4)ncc3Cl)ccc2n(C)c1=O (centres unmarked) [compound 260, 2-((6-((5-chloro-2-(4-((4-(2-(2,6-dioxopiperidin-3-yl)-1,3-dioxoisoindolin-4-yl)piperazin-1-yl)methyl)piperidin-1-yl)pyrimidin-4-yl)amino)-1-methyl-2-oxo-1,2-dihydroquinolin-3-yl)oxy)-N-methylacetamide]
IC50: 10 to 50 nM
Dmax (T47D): ≥ 70%

CNC(=O)COc1cc2cc(Nc3nc(N4CCC(CN5CCC(c6cc(C(=O)N7CCC7)cc(N7CCC(=O)NC7=O)c6)CC5)CC4)ncc3Cl)ccc2n(C(C)C)c1=O [compound 428, 2-{[6-({2-[4-({4-[3-(azetidine-1-carbonyl)-5-(2,4-dioxo-1,3-diazinan-1-yl)phenyl]piperidin-1-yl}methyl)piperidin-1-yl]-5-chloropyrimidin-4-yl}amino)-2-oxo-1-(propan-2-yl)-1,2-dihydroquinolin-3-yl]oxy}-N-methylacetamide]
IC50 (T47D cells): ≥ 100 nM

CN1C(=O)CCc2cc(Nc3cc(OC4CCN(C(=O)COCCOc5ccc6c(c5)C(=O)N(C5CCC(=O)NC5=O)C6=O)CC4)c([N+](=O)[O-])cc3Cl)ccc21 (centres unmarked) [compound 76, 5-(2-(2-(4-(4-chloro-5-((1-methyl-2-oxo-1,2,3,4-tetrahydroquinolin-6-yl)amino)-2-nitrophenoxy)piperidin-1-yl)-2-oxoethoxy)ethoxy)-2-(2,6-dioxopiperidin-3-yl)isoindoline-1,3-dione]
DC50: > 100 nM

CNC(=O)COc1cc2cc(Nc3nc(N4CCC(OCCOCCOCCOCCOCCOc5ccc6c(c5)C(=O)N(C5CCC(=O)NC5=O)C6=O)CC4)ncc3Cl)ccc2n(C)c1=O (centres unmarked) [compound 64, 2-((6-((5-chloro-2-(4-((14-((2-(2,6-dioxopiperidin-3-yl)-1,3-dioxoisoindolin-5-yl)oxy)-3,6,9,12-tetraoxatetradecyl)oxy)piperidin-1-yl)pyrimidin-4-yl)amino)-1-methyl-2-oxo-1,2-dihydroquinolin-3-yl)oxy)-N-methylacetamide]
DC50: > 100 nM

CNC(=O)COc1cc2cc(Nc3nc(N4CCN(CC5CCN(C(=O)c6ccc(N7CCC(=O)NC7=O)c(OC)c6)CC5)CC4)ncc3Cl)ccc2n(C(C)C)c1=O [compound 408, 2-{[6-({5-chloro-2-[4-({1-[4-(2,4-dioxo-1,3-diazinan-1-yl)-3-methoxybenzoyl]piperidin-4-yl}methyl)piperazin-1-yl]pyrimidin-4-yl}amino)-2-oxo-1-(propan-2-yl)-1,2-dihydroquinolin-3-yl]oxy}-N-methylacetamide]
IC50 (T47D cells): ≥ 100 nM

CNC(=O)COc1cc2cc(Nc3nc(N4CCC(OCCOCCOCCOCCc5cccc(Oc6ccc7c(c6)CN(C6CCC(=O)NC6=O)C7=O)c5)CC4)ncc3Cl)ccc2n(C)c1=O (centres unmarked) [compound 126, 2-((6-((5-chloro-2-(4-(2-(2-(2-(3-((2-(2,6-dioxopiperidin-3-yl)-1-oxoisoindolin-5-yl)oxy)phenethoxy)ethoxy)ethoxy)ethoxy)piperidin-1-yl)pyrimidin-4-yl)amino)-1-methyl-2-oxo-1,2-dihydroquinolin-3-yl)oxy)-N-methylacetamide]
DC50: > 100 nM

CNC(=O)COc1cc2cc(Nc3cc(N4CCN(C(C)(C)C5CCN(c6ccc7c(c6)C(=O)N(C6CCC(=O)NC6=O)C7=O)CC5)CC4)ncc3Cl)ccc2n(C(C)C)c1=O (centres unmarked) [compound 308, 2-{[6-({5-chloro-2-[4-(2-{1-[2-(2,6-dioxopiperidin-3-yl)-1,3-dioxo-2,3-dihydro-1H-isoindol-5-yl]piperidin-4-yl}propan-2-yl)piperazin-1-yl]pyridin-4-yl}amino)-2-oxo-1-(propan-2-yl)-1,2-dihydroquinolin-3-yl]oxy}-N-methylacetamide]
IC50: 10 to 50 nM
Dmax (T47D): < 50%

CNC(=O)COc1cc2cc(Nc3nc(N4CCC(CN5CCC6(CC5)CN(c5ccc(C(=O)NC7CCC(=O)NC7=O)c(OC)c5)C6)CC4)ncc3Cl)ccc2n(C(C)C)c1=O (centres unmarked) [compound 425, 4-[7-({1-[5-chloro-4-({3-[(methylcarbamoyl)methoxy]-2-oxo-1-(propan-2-yl)-1,2-dihydroquinolin-6-yl}amino)pyrimidin-2-yl]piperidin-4-yl}methyl)-2,7-diazaspiro[3.5]nonan-2-yl]-N-(2,6-dioxopiperidin-3-yl)-2-methoxybenzamide]
Dmax (T47D cells): 50 to 70%
IC50 (T47D cells): < 10 nM

CNC(=O)COc1cc2cc(Nc3nc(N4CCC(OC5CC6(CCN(c7cccc(C(=O)NC8CCC(=O)NC8=O)c7F)CC6)C5)CC4)ncc3Cl)ccc2n(C(C)C)c1=O (centres unmarked) [compound 433, 3-[2-({1-[5-chloro-4-({3-[(methylcarbamoyl)methoxy]-2-oxo-1-(propan-2-yl)-1,2-dihydroquinolin-6-yl}amino)pyrimidin-2-yl]piperidin-4-yl}oxy)-7-azaspiro[3.5]nonan-7-yl]-N-(2,6-dioxopiperidin-3-yl)-2-fluorobenzamide]
Dmax (T47D cells): ≥ 70%
